The numbers were not newly measured in patent US20260285919A1, “RECOMBINANT PEPTIDES AND COMPOSITIONS THEREOF FOR PAIN MANAGEMENT” (UNIVERSITY OF ROCHESTER, priority 2023, published 2026), which cites them from elsewhere.

In series [1] the test system is mice. The note with it: for pain responses in injected paws: injected into the paws of mice.
The test system of series [2] is human ASIC1b. The note with it: human ASIC1b protein, as opposed to rodent ASIC1b.

In the case of “PcTx1 (EDCIPKWKGCVNRHGDCCEGLECWKRRRSFEVCVPKTPKT; UniProt P60514 1-40, looked up)”, the “pain responses in injected paws” value in series [1] was “this effect is not seen”.
Turning to mambalgin, the “effect on the activity of human ASIC1b” value in series [2] was “increases the activity of human ASIC1b”. Further, in series [1] (ASIC1a genetically deleted mice, ASIC1b present), the “analgesic effect in mice where ASIC1a is genetically deleted” value is on record as “still works”. Moreover, the “pain responses in injected paws” value in series [1] is given as “much less sensitive”.
